From patent publication US7767716B2, “Acyl hydrazines as kinase inhibitors, in particular for SGK” (Merck Patent GmbH, priority 2005, dated 2010)

With `O=C(Cc1cccc(O)c1)NNC(=O)c1c(F)cccc1F` [compound 38] the melting point was 191 to 192 °C.
Compound `COc1ccc(CC(=O)NNC(=O)c2c(C)cc(O)cc2O)cc1O` [compound 66] has a melting point of 232 to 233 °C.
Work on `O=C(Cc1cccc(O)c1)NNC(=O)c1ccccc1[N+](=O)[O-]` [compound 49] yielded a melting point of 206 to 207 °C.
For `Cc1cc(O)c(C)c(O)c1C(=O)NNC(=O)Cc1cccc(O)c1` [compound 61], the melting point was 193 to 194 °C.
Work on `O=C(Cc1cccc(O)c1)NNC(=O)c1ccc(O)cc1O` [compound 1] yielded a melting point of 233 to 235 °C.
